# Assay results from patent EP0791056B1, “LIPID-CLEAVAGE ENZYME COMPLEX” (priority 1994, dated 1996).
# What was measured:
# [1] = system: CEM-SS-Zellen; assay: Enzymatic cleavage of [14C]-AZT-DMDOPE by cell homogenates, TLC of metabolites; type: in vitro ADME; conditions: Zellhomogenate von CEM-SS-Zellen
# Procedure: Die Spaltung von AZT-DMDOPE wurde mit Hilfe eines Enzym-Assays mit [^14C]-AZT-DMDOPE und AZT-DMDOPE als Substrat untersucht. Als Enzymquelle wurden zunächst Zellhomogenate von CEM-SS-Zellen und humanen PBL verwendet. Tab.
# Zur Herstellung der Zellhomogenate wurden Zellsuspensionen mit einer Dichte von 5 x10^7 Zellen/ml 50 mM Tris (pH 7.4) im Glashomogenisator mechanisch aufgeschlossen. Der Zellaufschluß wurde hierbei im Umkehr-Phasenkontrast-Mikroskop optisch kontrolliert. Tab.
# Zunächst wurde 1 ml dieses Zellhomogenales in dem Enzym-Assay ohne vorherige Bestimmung der Proteinkonzentration eingesetzt.
# Zur Gewährleistung einer Substratsättigung wurden weitere 50 nmol der nichtradioaktiv markierten Verbindung hinzugefügt. [^14C]-AZT-DMDOPE trägt die radioaktive Markierung im Thioetherlipidteil und erlaubt somit eine eindeutige Identifikation der potentiellen Metabolits [^14-C]DMDOP.
# Die Ansätze wurden für 1, 3, 6 und 24 h im Wasserbad bei 37 °C inkubiert. Als Vergleich wurde ein Ansatz ohne Zugabe von Zellhomogenat mitgeführt. Anschließend wurden die Spaltprodukte mit Diethylether:2-Propanol (9:1, v/v) extrahiert und dünnschichtchromatographisch im IBA- und IBAE-System analysiert (Abb. 18). Nach Trennung der Substanzen wurde zur Detektion der radioaktiv markierten Substanzen die DC-Platte 15 min im Radio-DC-Analysator gemessen. […]
# [2] = target: T1, Nuclease aus Staphylococcus aureus (Staphylococcus aureus, UniProt P00644); assay: Enzymatic cleavage of AZT-DMDOPE, detection of cleavage products by thin-layer chromatography; type: biochemical; conditions: 10 mg AZT-DMDOPE in 0,1 M Tris, 0,1 mg enzyme, 15 h + 6 h at 37 °C
# T1 construct: purchased Boehringer Mannheim GmbH
# Procedure: (§1) 10 mg (3'-Desoxy-3'-azidothymidin)-5'-phosphorsäure-(3-dodecyl-mercapto-2-decyl-oxy)-propylester (AZT-DMDOPE) werden in 0,5 ml 0,1 M Tris-Pufferlösung suspendiert und nach Zugabe des Enzyms (0,5 mg bei Phosphodiesterase und 0,1 mg bei Phospholipase/Nuclease) 15 Stunden bei 37 °C inkubiert. Anschließend wird die Lösung dünnschichtchromatographisch untersucht. Nach Zugabe von 5 Tropfen gesättigter NaHCO3-Lösung wurde weitere 6 Stunden bei 37 °C inkubiert und anschließend die Lösung dünnschichtchromatographisch untersucht.
# (§2) Durch Dünnschichtchromatographie mit verschiedenen Elutionsmitteln wurde die Lösung hinsichtlich der Bildung der möglichen Spaltprodukte (AZT, AZT-monophosphat, DMDOP und Lipidmonophosphat) untersucht.
# (§3) • a) Phospholipase C aus Bacillus cereus, 2000 U/0,5 ml, Boehringer Mannheim GmbH • b) Phospholipase D, Typ I, aus Kohl, 150 - 300 U/mg, Sigma • c) Phosphodiesterase aus Kalbsmilz, 2 U/mg, Boehringer Mannheim GmbH • d) Phosphodiesterase aus Schlangengift, Boehringer Mannheim GmbH • e) Nuclease aus Staphylococcus aureus, 15 000 U/mg, Boehringer Mannheim GmbH • f) LCE (Lipid-Cleavage-Enzyme)
# [3] = target: T2, Phospholipase C aus Bacillus cereus (Bacillus cereus, UniProt P09598); assay: as above; type: biochemical; conditions: 10 mg AZT-DMDOPE in 0,1 M Tris, 0,1 mg enzyme, 15 h + 6 h at 37 °C
# T2 construct: purchased Boehringer Mannheim GmbH
# T2 sequence (P09598 39-283 limits assumed): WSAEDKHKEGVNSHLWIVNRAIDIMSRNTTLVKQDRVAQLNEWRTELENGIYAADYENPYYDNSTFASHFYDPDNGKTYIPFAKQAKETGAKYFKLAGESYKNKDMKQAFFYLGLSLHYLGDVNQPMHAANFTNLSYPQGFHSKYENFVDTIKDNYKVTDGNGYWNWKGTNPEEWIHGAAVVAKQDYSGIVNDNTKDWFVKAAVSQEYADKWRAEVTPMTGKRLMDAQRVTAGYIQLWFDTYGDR
# Procedure: as §1, §2, §3
# [4] = system: Phosphodiesterase aus Kalbsmilz; assay: as above; type: biochemical; conditions: 10 mg AZT-DMDOPE in 0,1 M Tris, 0,5 mg enzyme, 15 h + 6 h at 37 °C
# Procedure: as §1, §2, §3
# [5] = system: P3X63Ag8.653-Zellen; assay: Intracellular concentrations of AZT and AZT nucleotides (radioimmunoassay) in thymidine kinase deficient cells; type: in vitro ADME; conditions: for maximale Konzentrationen an AZT und AZT-Nukleotiden: after 6 h; for maximale Konzentrationen, nur AZT erfaßt: after 24 h, without alkaline phosphatase; for Substanzspiegel an phosphoryliertem AZT: comparison before/after alkaline phosphatase
# Text: Die Bestimmung der intrazellulären Konzentrationen an AZT und AZT-Nukleotiden in Thymidikinasedefizienten Zellen sollte weitere Erkenntnisse über die intrazelluläre Spaltung der Testsubstanz AZT-DMDOPE liefern. Intrazelluläres AZT kann in diesen Zellen aufgrund eines Mangels an Thymidin-Kinase (TK) nicht in ATZ-MP und somit in das therapeutisch wirksame AZT-TP überführt werden. Die Bestimmung der intrazellulären Konzentrationen an AZT und AZT-Nukleotiden nach Inkubation mit AZT-DMDOPE könnte somit einen weiteren Hinweis auf die Spaltung der Teststubstanz geben.
# Hierfür wurden in Gewebekulturschalen (60 x 15 mm) 1 x 10^7 Zellen in RPMI 1640 Komplettmedium I mit 0.03 bzw. 0.3 µg AZT/ml und 1 bzw. 10 µg AZT-DMDOPE/ml über 6, 24 und 48 h inkubiert. Nach Extraktion von AZT und der AZT-Nukleotide und einer Behandlung mit alkalischer Phosphatase wurde die Konzentration an AZT mit Hilfe des Radioimmuno-Assays bestimmt.
structure (smiles),measurement,setting,value
"CCCCCCCCCCCCSCC(COP(=O)(O)OC[C@H]1O[C@@H](n2cc(C)c(=O)[nH]c2=O)C[C@@H]1N=[N+]=[N-])OCCCCCCCCCC (some centres unmarked) [AZT-DMDOPE, (3'-Desoxy-3'-azidothymidin)-5'-phosphorsäure-(3-dodecyl-mercapto-2-decyloxy)-propylester]",Metabolisierung von AZT-DMDOPE,[1],zu DMDOP und AZT-MP metabolisiert
same,Fluoreszenzauslöschung DC,[2],negativ
same,Fluoreszenzauslöschung DC,[3],negativ
same,Fluoreszenzauslöschung DC,[4],negativ
same,maximale Konzentrationen an AZT und AZT-Nukleotiden,[5]; 1 µg AZT-DMDOPE/ml,0.55 ng/10^6 Zellen
same,"maximale Konzentrationen, nur AZT erfaßt",[5]; 1 µg AZT-DMDOPE/ml,0.05 ng/mL
same,Substanzspiegel an phosphoryliertem AZT,[5]; 1 µg AZT-DMDOPE/ml,0.48 ng/10^6 Zellen
same,maximale Konzentrationen an AZT und AZT-Nukleotiden,[5]; 10 µg AZT-DMDOPE/ml,4.40 ng/10^6 Zellen
same,"maximale Konzentrationen, nur AZT erfaßt",[5]; 10 µg AZT-DMDOPE/ml,1.10 ng/mL
same,Substanzspiegel an phosphoryliertem AZT,[5]; 10 µg AZT-DMDOPE/ml,2.42 ng/10^6 Zellen
same,intrazelluläre Konzentrationen an AZT und AZT-Nukleotiden im Vergleich zu äquipotenten Konzentrationen an AZT,"[5]; 6, 24 and 48 h incubation",deutlich höher
